Structures are written as SMILES.

For one assay, the system named is WI-38 cells. As to the kind of experiment: Clonogenic assay, radioprotection of WI-38 cells against γ-irradiation. Type of assay: cell-based, human. To be noted: WI-38 cells pretreated 24 h with 0.5 μM drug, γ-irradiation 2-12 Gy, clonogenic assay. As to the method:
Further, clonogenic assay is considered as the gold standard method for evaluating the anticancer activity of any compound and is also a good indicator of the in vivo efficacy of any anticancer compound. Therefore, the therapeutic index of DSePA and D-DSePA in A549/WI-38 cells was also validated by employing the clonogenic assay. For this, A549/WI-38 cells were treated with the varying concentrations (0.1-2 μM)/(1-500 μM) of DSePA/D-DSePA for seven days and the survival fraction was calculated by counting the number of surviving clones (FIG. 11A). The plot of survival fraction verses the concentration of DScPA/D-DSCPA was used to estimate the IC50 of above compounds to inhibit the growth of A549/WI-38 cells. […] This clearly confirmed that deuteration of DScPA reduced its toxicity in normal cells without compromising its efficacy in cancer cells. Since anticancer agents are intended to be used in combination with radiation, DSePA/D-DSePA at a treatment concentration of 0.5 μM (dose close to IC50 as determined by clonogenic assay) was combined with varying absorbed doses (2-8 Gy) of γ-irradiation and the effect of combinatorial treatment on the viability of A549 cells was determined by clonogenic assay (FIG. 12A & 12B). For this, A549 cells exposed to the varying absorbed doses (2-8 Gy) of γ-radiation were immediately treated with DScPA/D-DScPA and cultured for seven days prior to clonogenic assay. […] The D10 value of the combinatorial treatment involving DScPA estimated was 4.5 Gy (FIG. 12B). […]
Clonogenic assay—Clonogenic assay was performed according to the method reported previously. […] After 7 days, colonies were fixed with absolute methanol for 5 min, stained with 0.5% crystal violet for 5 min, washed with distilled water to remove excess stain and counted manually under a stereo microscope. […] The plating efficiency and the survival fraction under irradiated and drug treated conditions were calculated using following formulae: […]
The plating efficiency of A549 and WI38 cells was calculated by seeding ˜300 and ˜500 cells respectively. […]

The test system of assay [1] is lung cancer cell lines (A549, H1975 and H3122) versus normal lung cells (WI-38 and WI-26 VA4). Briefly: Therapeutic index by MTT assay, lung cancer cell lines versus normal lung cells. The note with it: for Therapeutic Index (IC50 in normal cell / IC50 in cancer cells): 48 h post-treatment. The format is cell-based, human. As to the method: Therefore, D-DSePA was compared with un-deuterated DSePA for its anticancer activity in A549, H1975 and H3122 cell lines which are representative of NSCLC. For this, above cells were treated with the varying concentrations (0.1-100 μM) of DSePA/D-DSePA for 48 h and the cell viability was determined by MTT assay (FIG. 9A-C). The plot of percent (%) cytotoxicity (100-% viability) versus the concentration of DSePA/D-DSePA was used to estimate the half maximum concentration (IC50) of above compounds to inhibit the proliferation of cells. […] Similarly, the toxicity of DSePA/D-DSePA was studied in non-cancerous lung fibroblast cells, WI-38 and WI-26 VA4 in the concentration range of 0.1 to 1000 μM at 48 h post treatment by MTT assay (FIG. 9D and 9E). […] Employing these values, the therapeutic index (IC50 in normal lung cell/IC50 in lung cancer cell) of DSePA and D-DSePA in different pairs of normal versus cancerous cells (viz., A549/WI-38, A549/WI-26 VA4, H1975/WI-38, H1975/WI-26 VA4, H3122/WI-38 and H3122/WI-26 VA4) was calculated (Table-3). […] The average therapeutic index of DSePA and D-DSePA estimated from above study was 11.05±1.5 and 78.7±29.2 respectively (FIG. 10).
MTT Assay—To evaluate the anti-proliferative effect of D-DScPA and DScPA, Cells (˜5×10^3) suspended in 100 μl of complete culture medium were seeded in each well of 96 well plates. The cells were allowed to attach and grow for 24 h, treated with desired concentrations of D-DSePA/DScPA dissolved in culture medium for 48 h and then processed for MTT assay as described in literature. The percentage (%) cytotoxicity was calculated from the decrease in absorbance at 570 nm of treated groups as compared to that of control group. The % cytotoxicity was plotted as a function of the concentration of D-DSePA and DSePA and from this curve, the concentration of D-DSePA/DScPA causing 50% toxicity (IC50) was estimated. The therapeutic index was calculated by normalizing the IC50 concentration of D-DSePA/DSePA in non-cancerous cells to that in cancerous cells.
In general terms: Tetrazolium assays rely on reduction of a dye to a coloured formazan, in cell work by metabolically active cells.

Take `O=C(O)CC[Se][Se]CCC(=O)O` [DSePA, 3,3′-diselenodipropionic acid]: the “dose modification factor (DMF, D10 of radiation plus drug / D10 of radiation alone)” value with WI-38 cells is 1.12±0.03. The “Therapeutic Index (IC50 in normal cell / IC50 in cancer cells)” value stood at 9.9 ± 0.5 in assay [1] (A549/WI-26 VA4, MTT assay); 11.2 ± 0.6 in assay [1] (A549/WI-38, MTT assay); 14.2 ± 0.7 in assay [1] (H1975/WI-26 VA4, MTT assay); 16.1 ± 0.8 in assay [1] (H1975/WI-38, MTT assay); 7.0 ± 0.4 in assay [1] (H3122/WI-26 VA4, MTT assay); 7.9 ± 0.4 in assay [1] (H3122/WI-38, MTT assay). This compound showed an average therapeutic index in assay [1] (mean of six normal/cancer cell pairs, mean±SEM (n=6), MTT assay) of 11.05±1.5.

These data come from patent publication US20240208901A1, “Deuterated 3,3'-Diselenodipropionic Acid (DSePA) and Its Use as an Anticancer or Radioprotective Agent” (Secretary, Department of Atomic Energy, priority 2022, published 2024).
